Reference: ChEMBL document CHEMBL1201862, “PubChem BioAssay data set” (2004)
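Where inhibition never reached the appropriate level, the endpoint shown equals the highest concentration tested. Otherwise, values were interpolated linearly from a five-concentration, 48-hour dose response in 96-well plates. At the GI50, growth is halved.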 Activity calls are given as the source filed them. Cut-off read from the data, not from the text of the source: active = GI50 up to about 1.1 µM and inactive = higher.

How the values were obtained:
Assay in all cases: NCI-60 cell line screen, 48 h
786-0 = system: 786-0
NCI-H522 = system: NCI-H522
SR = system: SR
OVCAR-3 = system: OVCAR-3
SW-620 = system: SW-620
UACC-62 = system: UACC-62
UO-31 = system: UO-31
MCF7 = system: MCF7
RPMI-8226 = system: RPMI-8226
BT-549 = system: BT-549
T47D = system: T47D
DU-145 = system: DU-145
KM12 = system: KM12
HT-29 = system: HT-29
SK-OV-3 = system: SK-OV-3
Malme-3M = system: Malme-3M
ACHN = system: ACHN
OVCAR-4 = system: OVCAR-4
CCRF-CEM = system: CCRF-CEM
HL-60 = system: HL-60

| Compound | GI50 (786-0) | GI50 (NCI-H522) | GI50 (SR) | GI50 (OVCAR-3) | GI50 (SW-620) | GI50 (UACC-62) | GI50 (UO-31) | GI50 (MCF7) | GI50 (RPMI-8226) | GI50 (BT-549) | GI50 (T47D) | GI50 (DU-145) | GI50 (KM12) | GI50 (HT-29) | GI50 (SK-OV-3) | GI50 (Malme-3M) | GI50 (ACHN) | GI50 (OVCAR-4) | GI50 (CCRF-CEM) | GI50 (HL-60) |
| --- | --- | --- | --- | --- | --- | --- | --- | --- | --- | --- | --- | --- | --- | --- | --- | --- | --- | --- | --- | --- |
| Nc1ncn(C/C=C/c2ccccc2)c2ncnc1-2 | > 100 µM (inactive) | 78.2 µM (inactive) | 21.4 µM (inactive) | > 100 µM (inactive) | > 100 µM (inactive) | > 100 µM (inactive) | > 100 µM (inactive) | > 100 µM (inactive) | > 100 µM (inactive) | > 100 µM (inactive) | > 100 µM (inactive) | > 100 µM (inactive) | > 100 µM (inactive) | 50.9 µM (inactive) | > 100 µM (inactive) | > 100 µM (inactive) | > 100 µM (inactive) | > 100 µM (inactive) | – | – |
| CCN(CC)C1Oc2cc3c(cc2C(c2ccc(OC)cc2)C1C)OCO3 (configuration not stated) | 21.7 µM (inactive) | 15 µM (inactive) | 12.5 µM (inactive) | 18.2 µM (inactive) | 30.3 µM (inactive) | 19.1 µM (inactive) | 19.7 µM (inactive) | 20.9 µM (inactive) | 17 µM (inactive) | 20.8 µM (inactive) | 26.9 µM (inactive) | 25.6 µM (inactive) | 20 µM (inactive) | 18.7 µM (inactive) | 40.2 µM (inactive) | 18.3 µM (inactive) | 22.5 µM (inactive) | – | 15.5 µM (inactive) | – |
| CC12CN(CC[N+](C)(C)C)CC1(C)C1CCC2O1 (configuration not stated) | > 100 µM (inactive) | > 100 µM (inactive) | > 100 µM (inactive) | > 100 µM (inactive) | > 100 µM (inactive) | > 100 µM (inactive) | > 100 µM (inactive) | > 100 µM (inactive) | > 100 µM (inactive) | > 100 µM (inactive) | > 100 µM (inactive) | > 100 µM (inactive) | > 100 µM (inactive) | > 100 µM (inactive) | > 100 µM (inactive) | > 100 µM (inactive) | > 100 µM (inactive) | > 100 µM (inactive) | > 100 µM (inactive) | – |
| O=C(O[C@H]1CCN2C[C@H]3C[C@H](CN4C(=O)CCC[C@H]34)[C@@H]2C1)c1ccc(O)cc1 | > 100 µM (inactive) | > 100 µM (inactive) | > 100 µM (inactive) | > 100 µM (inactive) | > 100 µM (inactive) | > 100 µM (inactive) | > 100 µM (inactive) | > 100 µM (inactive) | > 100 µM (inactive) | > 100 µM (inactive) | > 100 µM (inactive) | > 100 µM (inactive) | > 100 µM (inactive) | > 100 µM (inactive) | > 100 µM (inactive) | > 100 µM (inactive) | > 100 µM (inactive) | > 100 µM (inactive) | > 100 µM (inactive) | – |
| N#Cc1nc(C#N)n(C(=O)c2ccccc2)c1NC(=O)c1ccccc1 | > 100 µM (inactive) | > 100 µM (inactive) | – | > 100 µM (inactive) | > 100 µM (inactive) | > 100 µM (inactive) | > 100 µM (inactive) | > 100 µM (inactive) | > 100 µM (inactive) | > 100 µM (inactive) | > 100 µM (inactive) | > 100 µM (inactive) | > 100 µM (inactive) | > 100 µM (inactive) | > 100 µM (inactive) | > 100 µM (inactive) | > 100 µM (inactive) | > 100 µM (inactive) | > 100 µM (inactive) | > 100 µM (inactive) |
| CCCSc1ccc2[nH]c(N3C(=O)/C(=C/c4ccc(SC)cc4)N=C3c3ccccc3)cc2c1 | 26.2 µM (inactive) | 16.1 µM (inactive) | – | 24.6 µM (inactive) | 18.5 µM (inactive) | 24.7 µM (inactive) | > 35.8 µM (inactive) | 14.1 µM (inactive) | 0.242 µM (active) | > 38.7 µM (inactive) | 32.1 µM (inactive) | > 50 µM (inactive) | 11 µM (inactive) | 22.7 µM (inactive) | 41.5 µM (inactive) | 40.6 µM (inactive) | > 50 µM (inactive) | 19.6 µM (inactive) | 13.5 µM (inactive) | 9.14 µM (inactive) |
